# Experiments:
# Assay in all cases: Ceftazidime MIC with fixed concentration of BLI
# Assay type in all cases: cell-based
# [1] = tested on: KP1009 Klebsiella pneumoniae CTX-M-15; settings: derivative at 10 μg/mL; KP1009 CTX-M-15
# Procedure: (§1) Next, ceftazidime potentiation activity of several cyclic boronic acid ester derivatives was tested using a larger panel of strains expressing β-lactamase hydrolyzing enzymes. Ceftazidime MICs were determined alone and in the presence of fixed concentrations of various cyclic boronic acid ester derivatives.
# [2] = tested on: KP1007 Klebsiella pneumoniae OXA-10; settings: derivative at 10 μg/mL; KP1007 OXA-10
# Procedure: as §1
# [3] = tested on: EC1008 Escherichia coli CTX-M3; settings: derivative at 10 μg/mL
# Procedure: as §1
# [4] = tested on: EC1007 Escherichia coli KPC-3; settings: derivative at 10 μg/mL; EC1007 KPC-3
# Procedure: as §1
# [5] = tested on: EC1011 Escherichia coli TEM-26; settings: derivative at 10 μg/mL; EC1011 TEM-26
# Procedure: as §1
# [6] = tested on: KP1012 Klebsiella pneumoniae SHV-18; settings: derivative at 10 μg/mL; KP1012 SHV-18
# Procedure: as §1
# [7] = tested on: ec308 Escherichia coli SHV-5; settings: derivative at 10 μg/mL; ec308 SHV-5
# Procedure: as §1
# [8] = tested on: AB1054 Acinetobacter baumannii OXA-23; settings: derivative at 10 μg/mL; AB1054 OXA-23
# Procedure: as §1
# [9] = tested on: CF1000 Citrobacter freundii Hyper AmpC expression; settings: derivative at 10 μg/mL
# Procedure: as §1
# [10] = tested on: EC1009 Escherichia coli TEM-10; settings: derivative at 10 μg/mL; EC1009 TEM-10
# Procedure: as §1
# [11] = tested on: EC1012 Escherichia coli TEM-12; settings: derivative at 10 μg/mL; EC1012 TEM-12
# Procedure: as §1
# [12] = tested on: ec307 Escherichia coli SHV-4; settings: derivative at 10 μg/mL; ec307 SHV-4
# Procedure: as §1
# [13] = tested on: EC1004 Escherichia coli CMY-2; settings: derivative at 10 μg/mL; EC1004 CMY-2
# Procedure: as §1
# [14] = tested on: ec303 Escherichia coli TEM-12; settings: derivative at 10 μg/mL; ec303 TEM-12
# Procedure: as §1
# [15] = tested on: KX1000 Klebsiella oxytoca OXA-2; settings: derivative at 10 μg/mL; KX1000 OXA-2
# Procedure: as §1
# [16] = tested on: KP1004 Klebsiella pneumoniae KPC-2; settings: derivative at 10 μg/mL; KP1004 KPC-2
# Procedure: as §1
# [17] = tested on: PAM2035 Pseudomonas aeruginosa ampC mexA:tet; settings: derivative at 10 μg/mL
# Procedure: as §1
# [18] = tested on: KP1008 Klebsiella pneumoniae KPC-2; settings: derivative at 10 μg/mL; KP1008 KPC-2
# Procedure: as §1
# [19] = tested on: KP1005 Klebsiella pneumoniae CTX-M-14; settings: derivative at 10 μg/mL; KP1005 CTX-M-14
# Procedure: as §1
# [20] = tested on: ec306 Escherichia coli SHV-2; settings: derivative at 10 μg/mL; ec306 SHV-2
# Procedure: as §1
# [21] = tested on: AB1057 Acinetobacter baumannii OXA-58; settings: derivative at 10 μg/mL; AB1057 OXA-58
# Procedure: as §1
# [22] = tested on: ec309 Escherichia coli MIR-1; settings: derivative at 10 μg/mL; ec309 MIR-1
# Procedure: as §1
# [23] = tested on: EC1010 Escherichia coli CMY-6; settings: derivative at 10 μg/mL; EC1010 CMY-6
# Procedure: as §1
# [24] = tested on: PAM2005 Pseudomonas aeruginosa ampC; settings: derivative at 10 μg/mL
# Procedure: as §1
# [25] = tested on: EC1014 Escherichia coli DHA-1; settings: derivative at 10 μg/mL; EC1014 DHA-1
# Procedure: as §1
# [26] = tested on: ec301 Escherichia coli TEM-6; settings: derivative at 10 μg/mL; ec301 TEM-6
# Procedure: as §1
# [27] = tested on: KP1010 Klebsiella pneumoniae SHV-12; settings: derivative at 10 μg/mL; KP1010 SHV-12
# Procedure: as §1
# [28] = tested on: ECL1002 Enterobacter cloacae Hyper AmpC expression; settings: derivative at 10 μg/mL
# Procedure: as §1
# [29] = tested on: EC1006 Escherichia coli FOX-5; settings: derivative at 10 μg/mL; EC1006 FOX-5
# Procedure: as §1
# [30] = tested on: ec310 Escherichia coli ACT-1; settings: derivative at 10 μg/mL; ec310 ACT-1
# Procedure: as §1
# [31] = tested on: pa1063 Pseudomonas aeruginosa GES-1; settings: derivative at 10 μg/mL; pa1063 GES-1
# Procedure: as §1
compound,measurement,setting,value
"O=C(O)CC1CC[C@H](NC(=O)C2CC2)B(O)O1 (stereo partly drawn) [Compound 4, 2-((3R)-3-(cyclopropanecarboxamido)-2-hydroxy-1,2-oxaborinan-6-yl)acetic acid]",Ceftazidime MIC with cyclic boronic acid ester derivative,[1],Z (MIC of greater than 8 μg/mL)
same,Ceftazidime MIC with cyclic boronic acid ester derivative,[2],Z (MIC of greater than 8 μg/mL)
same,Ceftazidime MIC with cyclic boronic acid ester derivative,[3],Y (MIC of greater than 1 μg/mL to 8 μg/mL)
same,Ceftazidime MIC with cyclic boronic acid ester derivative,[4],X (MIC of 1 μg/mL or less)
same,Ceftazidime MIC with cyclic boronic acid ester derivative,[5],Z (MIC of greater than 8 μg/mL)
same,Ceftazidime MIC with cyclic boronic acid ester derivative,[6],Z (MIC of greater than 8 μg/mL)
same,Ceftazidime MIC with cyclic boronic acid ester derivative,[7],Z (MIC of greater than 8 μg/mL)
same,Ceftazidime MIC with cyclic boronic acid ester derivative,[8],Z (MIC of greater than 8 μg/mL)
same,Ceftazidime MIC with cyclic boronic acid ester derivative,[9],Z (MIC of greater than 8 μg/mL)
same,Ceftazidime MIC with cyclic boronic acid ester derivative,[10],Z (MIC of greater than 8 μg/mL)
same,Ceftazidime MIC with cyclic boronic acid ester derivative,[11],Z (MIC of greater than 8 μg/mL)
same,Ceftazidime MIC with cyclic boronic acid ester derivative,[12],Z (MIC of greater than 8 μg/mL)
same,Ceftazidime MIC with cyclic boronic acid ester derivative,[13],Y (MIC of greater than 1 μg/mL to 8 μg/mL)
same,Ceftazidime MIC with cyclic boronic acid ester derivative,[14],Z (MIC of greater than 8 μg/mL)
same,Ceftazidime MIC with cyclic boronic acid ester derivative,[15],Y (MIC of greater than 1 μg/mL to 8 μg/mL)
same,Ceftazidime MIC with cyclic boronic acid ester derivative,[16],Y (MIC of greater than 1 μg/mL to 8 μg/mL)
same,Ceftazidime MIC with cyclic boronic acid ester derivative,[17],Z (MIC of greater than 8 μg/mL)
same,Ceftazidime MIC with cyclic boronic acid ester derivative,[18],X (MIC of 1 μg/mL or less)
same,Ceftazidime MIC with cyclic boronic acid ester derivative,[19],Z (MIC of greater than 8 μg/mL)
same,Ceftazidime MIC with cyclic boronic acid ester derivative,[20],Z (MIC of greater than 8 μg/mL)
same,Ceftazidime MIC with cyclic boronic acid ester derivative,[21],Z (MIC of greater than 8 μg/mL)
same,Ceftazidime MIC with cyclic boronic acid ester derivative,[22],Y (MIC of greater than 1 μg/mL to 8 μg/mL)
same,Ceftazidime MIC with cyclic boronic acid ester derivative,[23],Y (MIC of greater than 1 μg/mL to 8 μg/mL)
same,Ceftazidime MIC with cyclic boronic acid ester derivative,[24],Z (MIC of greater than 8 μg/mL)
same,Ceftazidime MIC with cyclic boronic acid ester derivative,[25],Y (MIC of greater than 1 μg/mL to 8 μg/mL)
same,Ceftazidime MIC with cyclic boronic acid ester derivative,[26],Z (MIC of greater than 8 μg/mL)
same,Ceftazidime MIC with cyclic boronic acid ester derivative,[27],Z (MIC of greater than 8 μg/mL)
same,Ceftazidime MIC with cyclic boronic acid ester derivative,[28],Y (MIC of greater than 1 μg/mL to 8 μg/mL)
same,Ceftazidime MIC with cyclic boronic acid ester derivative,[29],Z (MIC of greater than 8 μg/mL)
same,Ceftazidime MIC with cyclic boronic acid ester derivative,[30],Y (MIC of greater than 1 μg/mL to 8 μg/mL)
same,Ceftazidime MIC with cyclic boronic acid ester derivative,[31],Z (MIC of greater than 8 μg/mL)
"O=C(O)C[C@@H]1CC[C@H](NC(=O)Cc2cccs2)B(O)O1 [Compound 5, 2-((3R,6S)-2-hydroxy-3-(2-(thiophen-2-yl)acetamido)-1,2-oxaborinan-6-yl)acetic acid]",Ceftazidime MIC with cyclic boronic acid ester derivative,[1],Z (MIC of greater than 8 μg/mL)
same,Ceftazidime MIC with cyclic boronic acid ester derivative,[2],Y (MIC of greater than 1 μg/mL to 8 μg/mL)
same,Ceftazidime MIC with cyclic boronic acid ester derivative,[3],Y (MIC of greater than 1 μg/mL to 8 μg/mL)
same,Ceftazidime MIC with cyclic boronic acid ester derivative,[4],X (MIC of 1 μg/mL or less)
same,Ceftazidime MIC with cyclic boronic acid ester derivative,[5],Z (MIC of greater than 8 μg/mL)
same,Ceftazidime MIC with cyclic boronic acid ester derivative,[6],Y (MIC of greater than 1 μg/mL to 8 μg/mL)
same,Ceftazidime MIC with cyclic boronic acid ester derivative,[7],Z (MIC of greater than 8 μg/mL)
same,Ceftazidime MIC with cyclic boronic acid ester derivative,[8],Z (MIC of greater than 8 μg/mL)
same,Ceftazidime MIC with cyclic boronic acid ester derivative,[9],Y (MIC of greater than 1 μg/mL to 8 μg/mL)
same,Ceftazidime MIC with cyclic boronic acid ester derivative,[10],Z (MIC of greater than 8 μg/mL)
same,Ceftazidime MIC with cyclic boronic acid ester derivative,[11],Y (MIC of greater than 1 μg/mL to 8 μg/mL)
same,Ceftazidime MIC with cyclic boronic acid ester derivative,[12],Y (MIC of greater than 1 μg/mL to 8 μg/mL)
same,Ceftazidime MIC with cyclic boronic acid ester derivative,[13],Y (MIC of greater than 1 μg/mL to 8 μg/mL)
same,Ceftazidime MIC with cyclic boronic acid ester derivative,[14],Y (MIC of greater than 1 μg/mL to 8 μg/mL)
same,Ceftazidime MIC with cyclic boronic acid ester derivative,[15],Y (MIC of greater than 1 μg/mL to 8 μg/mL)
same,Ceftazidime MIC with cyclic boronic acid ester derivative,[16],Y (MIC of greater than 1 μg/mL to 8 μg/mL)
same,Ceftazidime MIC with cyclic boronic acid ester derivative,[17],Y (MIC of greater than 1 μg/mL to 8 μg/mL)
same,Ceftazidime MIC with cyclic boronic acid ester derivative,[18],X (MIC of 1 μg/mL or less)
same,Ceftazidime MIC with cyclic boronic acid ester derivative,[19],Z (MIC of greater than 8 μg/mL)
same,Ceftazidime MIC with cyclic boronic acid ester derivative,[20],Z (MIC of greater than 8 μg/mL)
same,Ceftazidime MIC with cyclic boronic acid ester derivative,[21],Z (MIC of greater than 8 μg/mL)
same,Ceftazidime MIC with cyclic boronic acid ester derivative,[22],X (MIC of 1 μg/mL or less)
same,Ceftazidime MIC with cyclic boronic acid ester derivative,[23],Y (MIC of greater than 1 μg/mL to 8 μg/mL)
same,Ceftazidime MIC with cyclic boronic acid ester derivative,[24],Z (MIC of greater than 8 μg/mL)
same,Ceftazidime MIC with cyclic boronic acid ester derivative,[25],X (MIC of 1 μg/mL or less)
same,Ceftazidime MIC with cyclic boronic acid ester derivative,[26],Z (MIC of greater than 8 μg/mL)
same,Ceftazidime MIC with cyclic boronic acid ester derivative,[27],Y (MIC of greater than 1 μg/mL to 8 μg/mL)
same,Ceftazidime MIC with cyclic boronic acid ester derivative,[28],Y (MIC of greater than 1 μg/mL to 8 μg/mL)
same,Ceftazidime MIC with cyclic boronic acid ester derivative,[29],Y (MIC of greater than 1 μg/mL to 8 μg/mL)
same,Ceftazidime MIC with cyclic boronic acid ester derivative,[30],X (MIC of 1 μg/mL or less)
same,Ceftazidime MIC with cyclic boronic acid ester derivative,[31],Z (MIC of greater than 8 μg/mL)
